US11053218B2, “3-(1-oxoisoindolin-2-yl)piperidine-2,6-dione derivatives and uses thereof” (Novartis AG, priority 2017, dated 2021)

Tests used:
IKZF2 = IKZF2 (Homo sapiens, UniProt Q96SW2+Q9UKS7); assay: Prolabel quantification of IKZF2 protein levels in 293GT cells; format: cell-based; details: 293GT cells; for inhibition at 10 µM: 24 h, read-out: IKZF2 % protein reduction at 10 μM, 24 h; for DC50: Prolabel assay, read-out: IKZF2 EC50
Procedure: (§1) The Prolabel system from DiscoverX was used to develop high-throughput and quantitative assays to measure changes in IKZF1, IKZF2 and GSPT1 protein levels in response to compounds. The prolabel tag was derived from the alpha fragment of beta galactosidase and has the following protein sequence: mssnslavvlqrrdwenpgvtqlnrlaahppfaswrnseeartdrpsqqlrslnge. The complementary fragment of beta-galactosidase (from DiscoverX), is added to the prolabel tag to form an active beta galactosidase enzyme whose activity can be precisely measured. In this way, the levels of a fusion protein with the prolabel tag can be quantified in cell lysates.
(§2) Lentiviral vectors, based on the Invitrogen pLenti6.2/V5 DEST backbone, were constructed that placed the prolabel tag upstream of IKZF1, IKZF2 or GSPT1 and expressed the fusion protein from a CMV promoter.
(§3) To ensure moderate and consistent expression of the prolabel fusion proteins across all cells in the population, stable cell lines were constructed from cells expressing a single copy of the construct. Lentivirus packaged with the constructs was made using the Virapower kit from Invitrogen.
(§4) The levels of prolabel tagged fusion proteins in compound treated cell lines were measured as follows:
(§5) Day 1, Cells were diluted to 1.0×10^6 cells/ml in normal growth medium. 17.5 μL of cells were plated in each well of a solid white 384 well plate. Plates were incubated overnight in a 37° C. tissue culture incubator.
(§6) Day 2, Serial dilutions of compounds were made in 384 well plates from 10 mM stocks. 15 μL of DMSO was added to each well of a 384 well plate. In the first column 15 μL of stock compound was added. The solution was mixed and 15 μL was transferred to the next column. This was repeated until 20 two-fold dilutions were prepared. 2.5 μL of diluted compounds were transferred into 60 μL of cell culture medium in another 384 well plate, and mixed well. 2.5 μL of this mixture was added to the plated cells. The final DMSO concentration was 0.5% and the highest concentration of compound was 50 μM. Plates were incubated overnight (e.g., about 14 h, 18 h, or 24 h) in a 37° C. tissue culture incubator.
(§7) Day 3, Plates were removed from the incubator and allowed to equilibrate at rt for 30 minutes. Prolabel substrate (DiscoverX PathHunter Prolabel Detection Kit, User manual: 93-0180) was added as described by the manufacturers protocols. Plates were incubated at rt for three hours and luminescence was read using an Envision reader (Perkin Elmer) Data was analyzed and visualized using the Spotfire software package.

IKZF1 = IKZF1 (Homo sapiens, UniProt Q13422+Q96SW2); assay: Prolabel quantification of IKZF1 protein levels in 293GT cells; format: cell-based; details: Prolabel assay, read-out: IKZF1 EC50
IKZF1, sequence (Q13422 whole entry): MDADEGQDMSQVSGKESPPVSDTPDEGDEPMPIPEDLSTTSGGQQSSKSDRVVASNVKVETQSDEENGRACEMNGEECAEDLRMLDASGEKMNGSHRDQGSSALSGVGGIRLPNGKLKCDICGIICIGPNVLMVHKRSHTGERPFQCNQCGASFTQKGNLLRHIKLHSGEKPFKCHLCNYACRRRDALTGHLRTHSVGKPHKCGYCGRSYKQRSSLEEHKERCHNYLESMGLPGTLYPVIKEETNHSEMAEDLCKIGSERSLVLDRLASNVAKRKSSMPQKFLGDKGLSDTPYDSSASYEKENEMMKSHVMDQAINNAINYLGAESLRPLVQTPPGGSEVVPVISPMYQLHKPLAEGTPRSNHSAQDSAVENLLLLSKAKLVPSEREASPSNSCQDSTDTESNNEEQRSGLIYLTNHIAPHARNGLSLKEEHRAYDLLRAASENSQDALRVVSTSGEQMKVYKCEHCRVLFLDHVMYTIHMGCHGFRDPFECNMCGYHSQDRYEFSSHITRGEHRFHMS
IKZF1, sequence (Q96SW2 whole entry): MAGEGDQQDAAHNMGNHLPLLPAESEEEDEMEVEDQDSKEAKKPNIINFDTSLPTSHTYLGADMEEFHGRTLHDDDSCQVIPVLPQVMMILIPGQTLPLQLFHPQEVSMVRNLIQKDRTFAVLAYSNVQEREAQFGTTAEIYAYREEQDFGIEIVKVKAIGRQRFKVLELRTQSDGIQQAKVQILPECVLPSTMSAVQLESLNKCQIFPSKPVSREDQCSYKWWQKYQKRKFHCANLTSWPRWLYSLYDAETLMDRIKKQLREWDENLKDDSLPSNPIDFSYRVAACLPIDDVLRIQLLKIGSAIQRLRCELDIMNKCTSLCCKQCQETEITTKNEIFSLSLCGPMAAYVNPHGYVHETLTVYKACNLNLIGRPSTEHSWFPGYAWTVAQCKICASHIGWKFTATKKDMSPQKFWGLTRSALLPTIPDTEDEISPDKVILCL
IKZF1, sequence (Q16531 whole entry partner): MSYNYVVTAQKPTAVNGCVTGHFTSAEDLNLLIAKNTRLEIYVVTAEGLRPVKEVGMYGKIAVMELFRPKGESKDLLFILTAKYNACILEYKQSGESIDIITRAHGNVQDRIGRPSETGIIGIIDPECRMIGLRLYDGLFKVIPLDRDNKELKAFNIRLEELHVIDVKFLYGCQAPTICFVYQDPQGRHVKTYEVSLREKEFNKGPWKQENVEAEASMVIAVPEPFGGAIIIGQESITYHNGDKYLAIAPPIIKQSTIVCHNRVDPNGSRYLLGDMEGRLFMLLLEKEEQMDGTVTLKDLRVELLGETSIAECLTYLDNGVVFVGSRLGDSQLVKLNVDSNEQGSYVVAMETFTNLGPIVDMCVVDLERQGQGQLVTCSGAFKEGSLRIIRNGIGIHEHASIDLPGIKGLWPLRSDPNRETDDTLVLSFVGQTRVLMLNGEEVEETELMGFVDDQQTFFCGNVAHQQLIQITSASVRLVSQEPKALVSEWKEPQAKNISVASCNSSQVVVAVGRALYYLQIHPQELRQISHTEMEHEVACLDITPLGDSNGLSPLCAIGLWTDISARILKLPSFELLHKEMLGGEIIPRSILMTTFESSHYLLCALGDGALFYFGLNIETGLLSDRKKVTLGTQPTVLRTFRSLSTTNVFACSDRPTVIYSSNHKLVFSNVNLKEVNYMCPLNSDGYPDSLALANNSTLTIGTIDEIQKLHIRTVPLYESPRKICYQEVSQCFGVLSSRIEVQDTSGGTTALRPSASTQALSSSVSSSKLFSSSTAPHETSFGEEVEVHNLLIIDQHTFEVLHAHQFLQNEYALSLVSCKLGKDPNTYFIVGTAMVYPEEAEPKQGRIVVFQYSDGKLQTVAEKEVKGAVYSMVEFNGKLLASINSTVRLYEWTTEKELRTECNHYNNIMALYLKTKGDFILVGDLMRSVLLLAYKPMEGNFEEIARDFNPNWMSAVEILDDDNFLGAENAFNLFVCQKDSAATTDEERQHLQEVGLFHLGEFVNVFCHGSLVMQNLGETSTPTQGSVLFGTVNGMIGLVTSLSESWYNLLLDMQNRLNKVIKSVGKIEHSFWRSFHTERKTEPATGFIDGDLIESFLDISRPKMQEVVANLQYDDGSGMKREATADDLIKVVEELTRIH
Procedure: as §1, §2, §3, §4, §5, §6, §7

IKZF2, sequence (Q9UKS7 whole entry, the tested form may be a part): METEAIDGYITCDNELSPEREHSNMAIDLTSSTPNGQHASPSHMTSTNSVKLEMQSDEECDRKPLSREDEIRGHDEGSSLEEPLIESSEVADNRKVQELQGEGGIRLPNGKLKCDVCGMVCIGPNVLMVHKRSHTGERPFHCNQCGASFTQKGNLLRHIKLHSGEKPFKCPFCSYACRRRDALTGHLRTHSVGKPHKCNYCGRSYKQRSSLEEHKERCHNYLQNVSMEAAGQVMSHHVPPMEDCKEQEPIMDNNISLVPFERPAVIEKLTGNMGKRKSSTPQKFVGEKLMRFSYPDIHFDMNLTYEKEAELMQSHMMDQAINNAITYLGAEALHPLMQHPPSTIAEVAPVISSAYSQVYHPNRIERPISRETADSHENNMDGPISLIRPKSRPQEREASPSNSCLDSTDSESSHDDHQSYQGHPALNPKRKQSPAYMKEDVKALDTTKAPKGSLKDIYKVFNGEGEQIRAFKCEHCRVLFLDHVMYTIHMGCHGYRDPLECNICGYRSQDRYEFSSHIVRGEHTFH
IKZF2, sequence (Q96SW2 whole entry, the tested form may be a part): as the sequence (Q96SW2 whole entry) above
IKZF2, sequence (Q16531 whole entry partner, the tested form may be a part): as the sequence (Q16531 whole entry partner) above

inhibition at 10 µM (IKZF2) [%] | DC50 (IKZF2) [nM] | DC50 (IKZF1) [nM] | SMILES
60 | 160 | > 30000 | O=C1CCC(N2Cc3cc(C4CCN(Cc5cn[nH]c5)CC4)ccc3C2=O)C(=O)N1 (stereo not drawn) [Compound I-116, 3-(5-(1-((1H-pyrazol-4-yl)methyl)piperidin-4-yl)-1-oxoisoindolin-2-yl)piperidine-2,6-dione]
50 | 50 | > 30000 | Cn1ccc(CN2CCC(c3ccc4c(c3)CN(C3CCC(=O)NC3=O)C4=O)CC2)n1 (stereo not drawn) [Compound I-117, 3-(5-(1-((1-methyl-1H-pyrazol-3-yl)methyl)piperidin-4-yl)-1-oxoisoindolin-2-yl)piperidine-2,6-dione]
65 | 140 | > 30000 | O=C1CCC(N2Cc3cc(C4CCN(Cc5cc[nH]c5)CC4)ccc3C2=O)C(=O)N1 (stereo not drawn) [Compound I-119, 3-(5-(1-((1H-pyrrol-3-yl)methyl)piperidin-4-yl)-1-oxoisoindolin-2-yl)piperidine-2,6-dione]
50 | 830 | > 30000 | O=C1CCC(N2Cc3cc(C4CCN(Cc5cnc[nH]5)CC4)ccc3C2=O)C(=O)N1 (stereo not drawn) [Compound I-120, 3-(5-(1-((1H-imidazol-5-yl)methyl)piperidin-4-yl)-1-oxoisoindolin-2-yl)piperidine-2,6-dione]
60 | 62 | > 30000 | CCn1ccc(CN2CCC(c3ccc4c(c3)CN(C3CCC(=O)NC3=O)C4=O)CC2)n1 (stereo not drawn) [Compound I-121, 3-(5-(1-((1-ethyl-1H-pyrazol-3-yl)methyl)piperidin-4-yl)-1-oxoisoindolin-2-yl)piperidine-2,6-dione]
70 | 76 | > 30000 | Nc1ncc(CN2CCC(c3ccc4c(c3)CN(C3CCC(=O)NC3=O)C4=O)CC2)cn1 (stereo not drawn) [Compound I-122, 3-(5-(1((2-aminopyrimidin-5-yl)methyl)piperidin-4-yl)-1-oxoisoindolin-2-yl)piperidine-2,6-dione]
75 | 69 | > 30000 | Nc1ccc(CN2CCC(c3ccc4c(c3)CN(C3CCC(=O)NC3=O)C4=O)CC2)cn1 (stereo not drawn) [Compound I-123, 3-(5-(1-((6-aminopyridin-3-yl)methyl)piperidin-4-yl)-1-oxoisoindolin-2-yl)piperidine-2,6-dione]
40 | 9800 | > 30000 | Cn1ncc(CN2CCC(c3ccc4c(c3)CN(C3CCC(=O)NC3=O)C4=O)CC2)c1N (stereo not drawn) [Compound I-124, 3-(5-(1-((5-amino-1-methyl-1H-pyrazol-4-yl)methyl)piperidin-4-yl)-1-oxoisoindolin-2-yl)piperidine-2,6-dione]
60 | 390 | > 30000 | O=C1CCC(N2Cc3cc(C4CCN(Cc5cnc6cnccn56)CC4)ccc3C2=O)C(=O)N1 (stereo not drawn) [Compound I-126]
45 | 190 | > 30000 | O=C1CCC(N2Cc3cc(C4CCN(Cc5cccc6ncnn56)CC4)ccc3C2=O)C(=O)N1 (stereo not drawn) [Compound I-127, 3-(5-(1-([1,2,4]triazolo[1,5-a]pyridin-5-ylmethyl)piperidin-4-yl)-1-oxoisoindolin-2-yl)piperidine-2,6-dione]
40 | 190 | > 30000 | Cc1cn(C)c(CN2CCC(c3ccc4c(c3)CN(C3CCC(=O)NC3=O)C4=O)CC2)n1 (stereo not drawn) [Compound I-129, 3-(5-(1-((1,4-dimethyl-1H-imidazol-2-yl)methyl)piperidin-4-yl)-1-oxoisoindolin-2-yl)piperidine-2,6-dione]
60 | 1080 | > 30000 | O=C1CCC(N2Cc3cc(C4CCN(Cc5cnc6ncccn56)CC4)ccc3C2=O)C(=O)N1 (stereo not drawn) [Compound I-132, 3-(5-(1-(imidazo[1,2-a]pyrimidin-3-ylmethyl)piperidin-4-yl)-1-oxoisoindolin-2-yl)piperidine-2,6-dione]
